How the values were obtained:
NBD1 = molecular target: T1, NBD1 (Homo sapiens, UniProt P13569); assay: Aggregation analysis using differential static light scattering (DSLS), thermal stability of NBD1 (ΔTagg); format: binding; details: ΔTagg versus DMSO control, NBD1 0.2 mg/ml
T1 construct: Purified recombinant NBD1 was produced using previously described methods; made in house
Method in brief: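 Purified recombinant NBD1 at 0.2 mg/ml in 50 mM Tris-HCl, 150 mM NaCl, 5 mM MgCl2, 2 mM ATP, 2 mM DTT, pH 7.6, 1% glycerol, with compound, heated 1° C./min to 70° C. under light-scattering monitoring. Tagg taken at curve inflection; ΔTagg is compound Tagg minus mean DMSO-control Tagg, binned A (≤5° C.), B (>5-≤10° C.), C (>10-≤25° C.).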

CFTR = molecular target: T2, CFTR (Homo sapiens, UniProt P13569, DEL508-508); assay: TECC24 AUC fold over DMSO @10 μM, CFTR-mediated transepithelial chloride transport in CF-HBE cells; format: cell-based; details: test agent AUC divided by DMSO vehicle AUC, primary CF-HBE cells, ΔF508 homozygous donor, 48 hours incubation
T2 construct: Primary human bronchial epithelial cells from a ΔF508 homozygous CF donor; host or cells: primary human bronchial epithelial cells (CF-HBE), ΔF508 homozygous donor
T2 sequence (P13569 with tags, fused parts or gaps DEL508-508): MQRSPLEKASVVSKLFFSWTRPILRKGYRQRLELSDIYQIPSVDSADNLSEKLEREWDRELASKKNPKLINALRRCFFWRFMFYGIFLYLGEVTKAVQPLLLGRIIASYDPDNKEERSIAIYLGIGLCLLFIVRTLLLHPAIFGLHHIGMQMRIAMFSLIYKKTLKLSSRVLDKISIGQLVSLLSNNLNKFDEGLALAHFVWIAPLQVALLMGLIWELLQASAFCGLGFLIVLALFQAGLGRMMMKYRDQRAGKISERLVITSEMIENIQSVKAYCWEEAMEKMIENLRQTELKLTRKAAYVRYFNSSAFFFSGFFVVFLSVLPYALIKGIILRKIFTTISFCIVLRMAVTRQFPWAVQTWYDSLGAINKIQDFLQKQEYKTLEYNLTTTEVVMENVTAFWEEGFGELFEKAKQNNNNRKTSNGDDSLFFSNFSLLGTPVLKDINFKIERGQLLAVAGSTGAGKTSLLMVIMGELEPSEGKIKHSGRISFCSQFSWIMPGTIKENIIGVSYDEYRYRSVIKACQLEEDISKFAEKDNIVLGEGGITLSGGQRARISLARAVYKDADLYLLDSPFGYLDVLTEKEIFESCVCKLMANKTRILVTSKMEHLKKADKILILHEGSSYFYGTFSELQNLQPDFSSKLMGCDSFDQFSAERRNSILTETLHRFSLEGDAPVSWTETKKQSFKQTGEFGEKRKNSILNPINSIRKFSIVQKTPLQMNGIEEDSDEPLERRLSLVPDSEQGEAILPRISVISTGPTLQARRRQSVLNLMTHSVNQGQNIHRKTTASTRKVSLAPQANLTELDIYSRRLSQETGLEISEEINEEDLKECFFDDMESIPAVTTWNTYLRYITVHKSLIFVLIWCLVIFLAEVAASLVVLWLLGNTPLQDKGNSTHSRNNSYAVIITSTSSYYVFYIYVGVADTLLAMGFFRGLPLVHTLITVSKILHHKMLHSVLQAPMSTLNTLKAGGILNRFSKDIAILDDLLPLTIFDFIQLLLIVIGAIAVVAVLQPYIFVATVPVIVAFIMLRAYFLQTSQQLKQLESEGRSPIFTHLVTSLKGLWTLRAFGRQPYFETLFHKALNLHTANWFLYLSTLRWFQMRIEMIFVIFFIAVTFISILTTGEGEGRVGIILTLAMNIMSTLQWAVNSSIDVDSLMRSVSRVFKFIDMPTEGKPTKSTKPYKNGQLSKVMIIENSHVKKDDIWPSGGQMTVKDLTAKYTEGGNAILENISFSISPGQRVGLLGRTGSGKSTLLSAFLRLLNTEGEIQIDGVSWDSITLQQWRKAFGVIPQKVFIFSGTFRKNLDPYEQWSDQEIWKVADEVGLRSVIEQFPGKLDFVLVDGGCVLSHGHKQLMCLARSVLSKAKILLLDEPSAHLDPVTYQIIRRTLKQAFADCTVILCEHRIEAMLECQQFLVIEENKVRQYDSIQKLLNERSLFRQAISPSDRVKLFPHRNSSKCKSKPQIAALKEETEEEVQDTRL
Method in brief: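 ΔF508-homozygous primary bronchial epithelial cells incubated 48 h at 36.5° C with compound (10 μM) in IL-13-containing medium, then TECC24 current-clamp recording in pH 7.4 Hepes saline with benzamil 10 μM, forskolin 10 μM, then CFTR inhibitor-172 20 μM. Equivalent Cl− current AUC between forskolin and inhibitor, expressed as fold over DMSO.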

T1 sequence (P13569 423-646 limits assumed): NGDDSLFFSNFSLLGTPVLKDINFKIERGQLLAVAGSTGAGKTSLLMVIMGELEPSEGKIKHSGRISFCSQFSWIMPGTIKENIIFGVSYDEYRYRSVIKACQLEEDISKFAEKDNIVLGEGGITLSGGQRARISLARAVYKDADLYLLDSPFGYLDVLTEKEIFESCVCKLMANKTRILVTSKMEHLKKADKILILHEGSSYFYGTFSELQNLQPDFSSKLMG

SMILES	DSLS 3D (100 μM ΔT) (NBD1)	TECC (AUC, 10 μM) (CFTR)
CNC(=O)[C@@H](C)Cc1cccc(C2(C)CCCC(C)(C)CS(=O)(=O)CCc3c(c(F)cc4[nH]ccc34)Oc3ccc(F)c(c3)-c3nc2nn3C)c1 (single isomer, unassigned) [Compound 149]	C (a value greater than 10 °C and less than or equal to 25 °C is marked “C”)	A (a TECC value less than 12 is marked “A”)
C[C@@H](Cc1cccc(C2(C)CCCC(C)(C)CS(=O)(=O)CCc3c(c(F)cc4[nH]ccc34)Oc3ccc(F)c(c3)-c3nc2nn3C)c1)C(=O)NS(=O)(=O)C1CC1 (single isomer, unassigned) [Compound 150]	C (a value greater than 10 °C and less than or equal to 25 °C is marked “C”)	A (a TECC value less than 12 is marked “A”)
COCC(Cc1cccc(C2(C)CCCC(C)(C)CS(=O)(=O)CCc3c(c(F)cc4[nH]ccc34)Oc3ccc(F)c(c3)-c3nc2nn3C)c1)C(=O)O (single isomer, unassigned) [Compound 153A, 2-[[3-(22,28-difluoro-3,6,10,10-tetramethyl-12,12-dioxo-24-oxa-12λ6-thia-3,4,19,30-tetrazapentacyclo[23.3.1.12,5.015,23.016,20]triaconta-1(29),2(30),4,15,17,20,22,25,27-nonaen-6-yl)phenyl]methyl]-3-methoxy-propanoic Acid]	C (a value greater than 10 °C and less than or equal to 25 °C is marked “C”)	C (a value between 20 and 80 is marked “C”)
COCC(Cc1cccc(C2(C)CCCC(C)(C)CS(=O)(=O)CCc3c(c(F)cc4[nH]ccc34)Oc3ccc(F)c(c3)-c3nc2nn3C)c1)C(=O)O (single isomer, unassigned) [Compound 153B, 2-[[3-(22,28-difluoro-3,6,10,10-tetramethyl-12,12-dioxo-24-oxa-12λ6-thia-3,4,19,30-tetrazapentacyclo[23.3.1.12,5.015,23.016,20]triaconta-1(29),2(30),4,15,17,20,22,25,27-nonaen-6-yl)phenyl]methyl]-3-methoxy-propanoic Acid]	A (an ΔTagg value less than or equal to 5 °C is marked “A”)	C (a value between 20 and 80 is marked “C”)
COCC(Cc1cccc(C2(C)CCCC(C)(C)CS(=O)(=O)CCc3c(c(F)cc4[nH]ccc34)Oc3ccc(F)c(c3)-c3nc2nn3C)c1)C(=O)O (single isomer, unassigned) [Compound 153C, 2-[[3-(22,28-difluoro-3,6,10,10-tetramethyl-12,12-dioxo-24-oxa-12λ6-thia-3,4,19,30-tetrazapentacyclo[23.3.1.12,5.015,23.016,20]triaconta-1(29),2(30),4,15,17,20,22,25,27-nonaen-6-yl)phenyl]methyl]-3-methoxy-propanoic Acid]	A (an ΔTagg value less than or equal to 5 °C is marked “A”)	A (a TECC value less than 12 is marked “A”)
C[C@H](Cc1cccc(C2(C)CCCC(C)(C)CS(=O)(=O)CCc3c(c(F)cc4[nH]ccc34)Oc3ccc(F)c(c3)-c3nc2c[nH]3)c1)C(=O)O (single isomer, unassigned) [Compound 157A]	A (an ΔTagg value less than or equal to 5 °C is marked “A”)	A (a TECC value less than 12 is marked “A”)
C[C@H](Cc1cccc(C2(C)CCCC(C)(C)CS(=O)(=O)CCc3c(c(F)cc4[nH]ccc34)Oc3ccc(F)c(c3)-c3nc2c[nH]3)c1)C(=O)O (single isomer, unassigned) [Compound 157B]	C (a value greater than 10 °C and less than or equal to 25 °C is marked “C”)	A (a TECC value less than 12 is marked “A”)
C[C@@H](Cc1cccc(C2(C)CCCC(C)(C)CS(=O)(=O)CCc3c(c(F)cc4[nH]ccc34)Oc3ccc(F)c(c3)-c3nc2nn3C)c1)C(N)=O (single isomer, unassigned) [Compound 158]	C (a value greater than 10 °C and less than or equal to 25 °C is marked “C”)	A (a TECC value less than 12 is marked “A”)
COCCOCCOCCOC(=O)[C@@H](C)Cc1cccc(C2(C)CCCC(C)(C)CS(=O)(=O)CCc3c(c(F)cc4[nH]ccc34)Oc3ccc(F)c(c3)-c3nc2nn3C)c1 (single isomer, unassigned) [Compound 165]	B (a value above 5 °C and less than or equal to 10 °C is marked “B”)	C (a value between 20 and 80 is marked “C”)
C/C(=C\c1cccc(C2(C)CCCC(C)(C)CS(=O)(=O)CCc3c(c(F)cc4[nH]ccc34)Cc3ccc(F)c(c3)-c3nc2nn3C)c1)C(=O)O (single isomer, unassigned) [Compound 166A, (E)-3-[3-(22,28-difluoro-3,6,10,10-tetramethyl-12,12-dioxo-12λ6-thia-3,4,19,30-tetrazapentacyclo-[23.3.1.12,5.015,23.016,20]triaconta-1(29),2(30),4,15,17,20,22,25,27-nonaen-6-yl)phenyl]-2-methyl-prop-2-enoic Acid]	C (a value greater than 10 °C and less than or equal to 25 °C is marked “C”)	B (a value between 12-20 is marked “B”)
C/C(=C\c1cccc(C2(C)CCCC(C)(C)CS(=O)(=O)CCc3c(c(F)cc4[nH]ccc34)Cc3ccc(F)c(c3)-c3nc2nn3C)c1)C(=O)O (single isomer, unassigned) [Compound 166B, (E)-3-[3-(22,28-difluoro-3,6,10,10-tetramethyl-12,12-dioxo-12λ6-thia-3,4,19,30-tetrazapentacyclo-[23.3.1.12,5.015,23.016,20]triaconta-1(29),2(30),4,15,17,20,22,25,27-nonaen-6-yl)phenyl]-2-methyl-prop-2-enoic Acid]	A (an ΔTagg value less than or equal to 5 °C is marked “A”)	A (a TECC value less than 12 is marked “A”)
C[C@H](Cc1cccc(C2(C)CCCC(C)(C)CS(=O)(=O)CCc3c(c(F)cc4[nH]ccc34)Cc3ccc(F)c(c3)-c3nc2nn3C)c1)C(=O)O (single isomer, unassigned) [Compound 169A]	C (a value greater than 10 °C and less than or equal to 25 °C is marked “C”)	A (a TECC value less than 12 is marked “A”)
C[C@H](Cc1cccc(C2(C)CCCC(C)(C)CS(=O)(=O)CCc3c(c(F)cc4[nH]ccc34)Cc3ccc(F)c(c3)-c3nc2nn3C)c1)C(=O)O (single isomer, unassigned) [Compound 169B]	A (an ΔTagg value less than or equal to 5 °C is marked “A”)	A (a TECC value less than 12 is marked “A”)
CC1(C)CCCC(C)(c2cccc(CC3(C(=O)O)CC3)c2)c2c[nH]c(n2)-c2cc(ccc2F)Oc2c(F)cc3[nH]ccc3c2CCS(=O)(=O)C1 (single isomer, unassigned) [Compound 171A, 1-[[3-(22,28-difluoro-6,10,10-trimethyl-12,12-dioxo-24-oxa-12λ6-thia-3,19,30-triazapentacyclo[23.3.1.12,5.015,23.016,20]triaconta-1(29),2(30),4,15,17,20,22,25,27-nonaen-6-yl)phenyl]methyl]cyclopropanecarboxylic Acid]	A (an ΔTagg value less than or equal to 5 °C is marked “A”)	A (a TECC value less than 12 is marked “A”)
CC1(C)CCCC(C)(c2cccc(CC3(C(=O)O)CC3)c2)c2c[nH]c(n2)-c2cc(ccc2F)Oc2c(F)cc3[nH]ccc3c2CCS(=O)(=O)C1 (single isomer, unassigned) [Compound 171B, 1-[[3-(22,28-difluoro-6,10,10-trimethyl-12,12-dioxo-24-oxa-12λ6-thia-3,19,30-triazapentacyclo[23.3.1.12,5.015,23.016,20]triaconta-1(29),2(30),4,15,17,20,22,25,27-nonaen-6-yl)phenyl]methyl]cyclopropanecarboxylic Acid]	C (a value greater than 10 °C and less than or equal to 25 °C is marked “C”)	A (a TECC value less than 12 is marked “A”)
C[C@@H](Cc1cccc(C2(C)CCCC(C)(C)CS(=O)(=O)CCc3c(c(F)cc4[nH]ccc34)[S+]([O-])c3ccc(F)c(c3)-c3nc2nn3C)n1)C(=O)O (single isomer, unassigned) [Compound 179A]	B (a value above 5 °C and less than or equal to 10 °C is marked “B”)	A (a TECC value less than 12 is marked “A”)
C[C@@H](Cc1cccc(C2(C)CCCC(C)(C)CS(=O)(=O)CCc3c(c(F)cc4[nH]ccc34)[S+]([O-])c3ccc(F)c(c3)-c3nc2nn3C)n1)C(=O)O (single isomer, unassigned) [Compound 179B]	A (an ΔTagg value less than or equal to 5 °C is marked “A”)	A (a TECC value less than 12 is marked “A”)
C[C@@H](Cc1cccc(C2(C)CCCC(C)(C)CS(=O)(=O)CCc3c(c(F)cc4[nH]ccc34)[S+]([O-])c3ccc(F)c(c3)-c3nc2nn3C)n1)C(=O)O (single isomer, unassigned) [Compound 179C]	C (a value greater than 10 °C and less than or equal to 25 °C is marked “C”)	C (a value between 20 and 80 is marked “C”)
C[C@@H](Cc1cccc(C2(C)CCCC(C)(C)CS(=O)(=O)CCc3c(c(F)cc4[nH]ccc34)[S+]([O-])c3ccc(F)c(c3)-c3nc2nn3C)n1)C(=O)O (single isomer, unassigned) [Compound 179D]	A (an ΔTagg value less than or equal to 5 °C is marked “A”)	A (a TECC value less than 12 is marked “A”)

Reference: US12649750B2, “Macrocyclic compounds, compositions, and methods of using thereof” (Sionna Therapeutics Inc., priority 2022, dated 2026)
